Measurements published in the NIST ThermoML archive (doi:10.1021/je700176d).
± gives the expanded uncertainty stated by the source.

Conditions: 101.33 kPa, Liquid, transient hot wire

SMILES | thermal conductivity (293 K) [W/m/K] | thermal conductivity (303 K) [W/m/K] | thermal conductivity (313 K) [W/m/K] | thermal conductivity (323 K) [W/m/K] | thermal conductivity (333 K) [W/m/K] | thermal conductivity (343 K) [W/m/K] | thermal conductivity (353 K) [W/m/K]
CCCCCCCCCCCCCC[P+](CCCCCC)(CCCCCC)CCCCCC.O=S(=O)([N-]S(=O)(=O)C(F)(F)F)C(F)(F)F | 0.144 ± 0.01 | 0.143 ± 0.01 | 0.142 ± 0.01 | 0.141 ± 0.01 | 0.141 ± 0.01 | 0.14 ± 0.01 | 0.139 ± 0.01
CCOS(=O)(=O)[O-].CCn1cc[n+](C)c1 [1-ethyl-3-methylimidazolium ethyl sulfate] | 0.182 ± 0.01 | 0.181 ± 0.01 | 0.181 ± 0.01 | 0.179 ± 0.01 | 0.179 ± 0.01 | 0.178 ± 0.01 | 0.177 ± 0.01
CCCCCCCCCCn1cc[n+](C)c1.O=S(=O)([N-]S(=O)(=O)C(F)(F)F)C(F)(F)F | 0.132 ± 0.01 | 0.131 ± 0.01 | 0.13 ± 0.01 | 0.129 ± 0.01 | 0.128 ± 0.01 | 0.128 ± 0.01 | 0.128 ± 0.01
CCCC[n+]1ccn(C)c1.O=S(=O)([N-]S(=O)(=O)C(F)(F)F)C(F)(F)F | 0.128 ± 0.01 | 0.127 ± 0.01 | 0.127 ± 0.01 | 0.126 ± 0.01 | 0.125 ± 0.01 | 0.124 ± 0.01 | 0.124 ± 0.01
CCn1cc[n+](C)c1.O=S(=O)([N-]S(=O)(=O)C(F)(F)F)C(F)(F)F | 0.13 ± 0.01 | 0.13 ± 0.01 | 0.129 ± 0.01 | 0.129 ± 0.01 | 0.129 ± 0.01 | 0.129 ± 0.01 | 0.128 ± 0.01
CCCCn1cc[n+](C)c1.O=S(=O)([O-])C(F)(F)F [1-butyl-3-methylimidazolium trifluoromethanesulfonate] | 0.147 ± 0.01 | 0.146 ± 0.01 | 0.145 ± 0.01 | 0.144 ± 0.01 | 0.144 ± 0.01 | 0.143 ± 0.01 | 0.142 ± 0.01
CCCC[N+]1(C)CCCC1.FC(F)(F)C(F)(F)[P-](F)(F)(F)(C(F)(F)C(F)(F)F)C(F)(F)C(F)(F)F | 0.107 ± 0.01 | 0.106 ± 0.01 | 0.106 ± 0.01 | 0.105 ± 0.01 | 0.105 ± 0.01 | 0.105 ± 0.01 | 0.105 ± 0.01
CCCC[N+]1(C)CCCC1.O=S(=O)([N-]S(=O)(=O)C(F)(F)F)C(F)(F)F | 0.125 ± 0.01 | 0.125 ± 0.01 | 0.124 ± 0.01 | 0.124 ± 0.01 |  |  | 
CCCCCCCCCCCCCC[P+](CCCCCC)(CCCCCC)CCCCCC.[Cl-] [trihexyl(tetradecyl)phosphonium chloride] | 0.161 ± 0.01 | 0.16 ± 0.01 | 0.159 ± 0.01 | 0.157 ± 0.01 | 0.157 ± 0.01 | 0.156 ± 0.01 | 0.155 ± 0.01
CCCCCC[n+]1ccn(C)c1.O=S(=O)([N-]S(=O)(=O)C(F)(F)F)C(F)(F)F | 0.127 ± 0.01 | 0.127 ± 0.01 | 0.127 ± 0.01 | 0.126 ± 0.01 | 0.125 ± 0.01 | 0.125 ± 0.01 | 0.125 ± 0.01
CCCCCCCCn1cc[n+](C)c1.O=S(=O)([N-]S(=O)(=O)C(F)(F)F)C(F)(F)F | 0.128 ± 0.01 | 0.128 ± 0.01 | 0.128 ± 0.01 | 0.126 ± 0.01 | 0.126 ± 0.01 | 0.125 ± 0.01 | 0.126 ± 0.01
